GI50 and IC50 data for 18 molecules are collected here from patent publication US7919493B2, “Anititumoral ecteinascidin derivatives” (Pharma Mar, S.A., priority 2001, dated 2011).

For orientation: GI50 means the concentration at which growth is held to half of that of the control. Read a low GI50 as greater sensitivity of the cells. What is called IC50 is the concentration needed to halve the response being measured. Read a high IC50 as weaker potency.

Values after ≈ are worked out from the molar mass of the structure shown. Some results are limits rather than exact numbers.

What all share (format): cell-based
Assay [1] relates to MEL-28. Briefly: Cytotoxic assay, sulforhodamine B (SRB), MEL-28. Conditions: Homo sapiens, SK-MEL-28; MEL-28 cells, 48 hours exposure, SRB method. The text has this:
(§1) A colorimetric type of assay, using sulforhodamine B (SRB) reaction has been adapted for a quantitative measurement of cell growth and viability (following the technique described by Skehan P et al. J. Natl. Cancer Inst. 1990, 82, 1107-1112).
(§2) This form of assay employs 96-well cell culture microplates of 9 mm diameter (Faircloth et al. Methods in cell science, 1988, 11(4), 201-205; Mosmann et al, Journal of. Immunological. Methods, 1983, 65(1-2), 55-63). Most of the cell lines are obtained from American Type Culture Collection (ATCC) derived from different human cancer types. Cells are maintained in RPMI 1640 10% FBS, supplemented with 0.1 g/L penicillin and 0.1 g/l streptomycin sulfate and then incubated at 37° C., 5% CO2 and 98% humidity. For the experiments, cells were harvested from subconfluent cultures using trypsin and resuspended in fresh medium before counting and plating.
(§3) Cells were seeded in 96 well microtiter plates at 5×10^3 cells per well in aliquots of 195 μL medium, and allowed to attach to the plate surface for 18 hours in drug free medium. Afterwards, samples are in aliquots of 5 μL in a ranging from 10 to 10-8 μg/mL dissolved in DMSO/ETOH (0.2% in PS buffer). After 48 hours exposure, the antitumor effect are measured by the SRB method: cells are fixed by adding 50 μL of cold 50% (w/v) trichloroacetic acid and incubating for 60 minutes at 4° C. Plates are washed with deionised water and dried. 100 μL of SRB solution (0.4% w/v in 1% acetic acid) is added to each microtiter well and incubated for 10 minutes at room temperature. Unbound SRB is removed by washing with 1% acetic acid. Plates are air-dried and bound stain is solubilized with Tris Buffer. Optical densities are read on an automated spectrophotometric plate reader at a single wavelength of 490 nm.
(§4) The values for mean ±SD of data from triplicate wells are calculated. GI50 (concentration that produces 50% growth inhibition) parameter was calculated (NCI algorithm) by automatic interpolation.
Background: Sulforhodamine B stains cellular protein and so reports cell mass.

Assay [2] relates to HT29. Briefly: Cytotoxic assay, sulforhodamine B (SRB), HT29. Conditions: Homo sapiens, HT-29; HT29 cells, 48 hours exposure, SRB method.
Source text: as §1, §2, §3, §4

Assay [3] relates to A549. In words: Cytotoxic assay, sulforhodamine B (SRB), A549. Conditions: Homo sapiens; A549 cells, 48 hours exposure, SRB method.
Source text: as §1, §2, §3, §4

The subject of assay [4] is DU-14S. Briefly: Cytotoxic assay, sulforhodamine B (SRB), DU-14S. Conditions: Homo sapiens; DU-14S cells, 48 hours exposure, SRB method.
Source text: as §1, §2, §3, §4

The subject of assay [5] is P-388 (suspension culture of a lymphoid neoplasm from DBA/2 mouse). In words: Cytotoxic activity screening, P-388 cells. Conditions: Mus musculus, P388, 72 h, three days of incubation, approximate IC50 vs control growth. In outline:
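P-388 murine lymphoid cells seeded at 1×10^4 cells/well in MEM with 5% FCS containing drug at the stated concentrations, run in duplicate. Untreated wells served as growth controls to confirm exponential growth.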

Assay [6] relates to MEL-28 (monolayer culture of a human melanoma). Briefly: Cytotoxic activity screening, MEL-28 cells. Conditions: Homo sapiens, SK-MEL-28, 72 h, three days of incubation, Crystal Violet, approximate IC50. An outline of the steps: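 Human monolayer lines seeded at 2×10^4 cells/well in MEM with 10% FCS containing drug, in duplicate. After 3 days at 37° C, 10% CO2, wells stained with 0.1% Crystal Violet. Approximate IC50 estimated from growth versus drug-free controls.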

Assay [7] relates to A-549 (monolayer culture of a human lung carcinoma). In words: Cytotoxic activity screening, A-549 cells. Conditions: Homo sapiens, A549, 72 h, three days of incubation, Crystal Violet, approximate IC50.
In assay [8] the test system is DU-145. Briefly: Cytotoxic activity screening, DU-145 cells. Conditions: Homo sapiens, DU-145, DU-145 cells.
Assay [9] deals with HT-29 (monolayer culture of a human colon carcinoma). In words: Cytotoxic activity screening, HT-29 cells. Conditions: Homo sapiens, HT-29, 72 h, three days of incubation, Crystal Violet, approximate IC50.

`COc1c(C)cc2c(c1O)[C@@H]1[C@@H]3[C@@H]4SC[C@H](NC(=O)[C@@H]5CCCN5C(=O)OC(C)(C)C)C(=O)OC[C@@H](c5c6c(c(C)c(OC(C)=O)c54)OCO6)N3[C@@H](O)[C@H](C2)N1C` [Compound 16b]: the GI50 in assay [1] turned out to be 1.11 nM; in assay [2] it was 1.23 nM; in assay [3] it was 1.23 nM; in assay [4], 0.37 nM.

Consider `COc1c(C)cc2c(c1O)[C@@H]1[C@@H]3[C@@H]4SC[C@H](NC(=O)c5cc6ccccc6oc5=O)C(=O)OC[C@@H](c5c6c(c(C)c(OC(C)=O)c54)OCO6)N3[C@@H](C#N)[C@H](C2)N1C` [Compound 15a], for which the 50% growth inhibitory concentration (GI50) worked out at 3.23 nM in assay [1], 4.38 nM in assay [2], 2.83 nM in assay [3] and 4.38 nM in assay [4].

In the case of `COc1c(C)cc2c(c1O)[C@@H]1[C@@H]3[C@@H]4SC[C@H](NC(=O)c5cc6ccccc6oc5=O)C(=O)OC[C@@H](c5c6c(c(C)c(OC(C)=O)c54)OCO6)N3[C@@H](O)[C@H](C2)N1C` [Compound 16a], the GI50 was 3.02 nM in assay [1], 3.94 nM in [2], 2.94 nM in assay [3] and 4.73 nM in [4].

As to `COc1c(C)cc2c(c1O)[C@@H]1[C@@H]3[C@@H]4SC[C@H](NC(=O)c5cnn(-c6ccccc6)c5C(F)(F)F)C(=O)OC[C@@H](c5c6c(c(C)c(OC(C)=O)c54)OCO6)N3[C@@H](C#N)[C@H](C2)N1C` [Compound 15d], the 50% growth inhibitory concentration (GI50) in assay [2] came out at 10.1 nM; in assay [3], 14.6 nM.

`COc1c(C)cc2c(c1O)[C@@H]1[C@@H]3[C@@H]4SC[C@H](NC(=O)c5cc(C)on5)C(=O)OC[C@@H](c5c6c(c(C)c(OC(C)=O)c54)OCO6)N3[C@@H](O)[C@H](C2)N1C` [Compound 16f]: the GI50 in assay [1] amounted to 5.13 nM; in [2], 4.3 nM; in assay [3] it was 3.47 nM; in [4], 3.4 nM.

As for `COc1c(C)cc2c(c1O)[C@@H]1[C@@H]3[C@@H]4SC[C@H](NC(=O)c5cnn(-c6ccccc6)c5C(F)(F)F)C(=O)OC[C@@H](c5c6c(c(C)c(OC(C)=O)c54)OCO6)N3[C@@H](O)[C@H](C2)N1C` [Compound 16e], the GI50 in assay [1] came out at 29.8 nM; in assay [2] it was 38.6 nM; in [3], 35.1 nM; in assay [4], 27.2 nM.

For `COc1c(C)cc2c(c1O)[C@@H]1[C@@H]3[C@@H]4SC[C@H](NC(=O)c5cccnc5Cl)C(=O)OC[C@@H](c5c6c(c(C)c(OC(C)=O)c54)OCO6)N3[C@@H](O)[C@H](C2)N1C` [Compound 16d], the GI50 in assay [1] came out at 2.5 nM; in assay [2] it was 13300 nM; in [3], 1330 nM; in assay [4] it was 2.16 nM.

For the molecule `COc1c(C)cc2c(c1O)[C@@H]1[C@@H]3[C@@H]4SC[C@H](NC(=O)[C@@H]5CCCN5)C(=O)OC[C@@H](c5c6c(c(C)c(OC(C)=O)c54)OCO6)N3[C@@H](O)[C@H](C2)N1C` [Compound 16c], the GI50 was determined as 0.281 nM in assay [1], 0.0422 nM in assay [2], 5.63 nM in [3] and 1.13 nM in [4].

As for `COc1c(C)cc2c(c1O)[C@@H]1[C@@H]3[C@@H]4SC[C@H](NC(=O)c5cc(C)on5)C(=O)OC[C@@H](c5c6c(c(C)c(OC(C)=O)c54)OCO6)N3[C@@H](C#N)[C@H](C2)N1C` [Compound 15e], the GI50 in assay [1] was 2.58 nM; in assay [2], 5.36 nM; in [3], 5.77 nM; in assay [4], 3.84 nM.

Take `COc1c(C)cc2c(c1O)[C@@H]1[C@@H]3[C@@H]4SC[C@H](NC(=O)[C@@H]5CCCN5C(=O)OC(C)(C)C)C(=O)OC[C@@H](c5c6c(c(C)c(OC(C)=O)c54)OCO6)N3[C@@H](C#N)[C@H](C2)N1C` [Compound 15b]: the concentration for 50% growth inhibition (GI50) in [2] came out at 3.66 nM; in [3], 7.32 nM.

On to `COc1c(C)cc2c(c1O)[C@@H]1[C@@H]3[C@@H]4SC[C@H](NC(=O)c5cccnc5Cl)C(=O)OC[C@@H](c5c6c(c(C)c(OC(C)=O)c54)OCO6)N3[C@@H](C#N)[C@H](C2)N1C` [Compound 15c], for which the GI50 in assay [1] was 1.21 nM; in assay [2], 2.93 nM; in [3] it was 1.8 nM; in [4], 0.468 nM.

Consider `COc1c(C)cc2c(c1O)[C@@H]1C3[C@@H]4SC[C@H](N(C)C)C(=O)OC[C@@H](c5c6c(c(C)c(OC(C)=O)c54)OCO6)N3[C@@H](C#N)[C@H](C2)N1C` (stereo partly drawn) [Compound 3m], for which the IC50 in [5], in assay [6], in [7], in assay [8] and in [9] was 10 ng/mL (≈ 15.4 nM) each time.

As for `COc1c(C)cc2c(c1O)[C@@H]1[C@@H]3[C@@H]4SC[C@H](NC(=O)[C@@H]5CCCN5)C(=O)OC[C@@H](c5c6c(c(C)c(OC(C)=O)c54)OCO6)N3[C@@H](C#N)[C@H](C2)N1C` [Compound 15f], the GI50 in assay [2] is 0.278 nM; in assay [3], 2.78 nM.

In the case of `COc1c(C)cc2c(c1O)[C@@H]1C3[C@@H]4SC[C@H](NC(=O)C(NC(=O)C(C)N)C(C)C)C(=O)OC[C@@H](c5c6c(c(C)c(OC(C)=O)c54)OCO6)N3[C@@H](C#N)[C@H](C2)N1C` (stereo partly drawn) [Compound 3s], the IC50 in [5], in assay [6], in assay [7], in assay [8] and in [9] was 1 ng/mL (≈ 1.26 nM) throughout.

Consider `CCCCCCCCCCCCCCCC(=O)O[C@H]1CS[C@@H]2c3c(OC(C)=O)c(C)c4c(c3[C@H](COC1=O)N1C2[C@H]2c3c(cc(C)c(OC)c3O)C[C@@H]([C@@H]1C#N)N2C)OCO4` (stereo partly drawn) [Compound 17f], for which the IC50 in assay [5], in assay [6], in assay [7], in assay [8] and in assay [9] was over 1000 ng/mL each time.

For `COc1c(C)cc2c(c1O)[C@@H]1C3[C@@H]4SC[C@H](O)C(=O)OC[C@@H](c5c6c(c(C)c(OC(C)=O)c54)OCO6)N3[C@@H](C#N)[C@H](C2)N1C` (stereo partly drawn) [Compound 15], the IC50 in assay [5], in assay [6], in assay [7], in assay [8] and in [9] was 5 ng/mL (≈ 8.02 nM) each time.

For the molecule `COc1c(C)cc2c(c1O)[C@@H]1C3[C@@H]4SC[C@H](NC(=O)C(C)NC(=O)/C=C/c5ccccc5)C(=O)OC[C@@H](c5c6c(c(C)c(OC(C)=O)c54)OCO6)N3[C@@H](O)[C@H](C2)N1C` (stereo partly drawn) [Compound 4x], the 50% inhibitory concentration (IC50) in assay [5], in assay [6], in assay [7], in [8] and in [9] was 1 ng/mL (≈ 1.23 nM) in each case.

As to `COc1c(C)cc2c(c1O)[C@@H]1C3[C@@H]4SC[C@H](NC(=O)C(NC(=O)C(C)NC(=O)/C=C/c5ccccc5)C(C)C)C(=O)OC[C@@H](c5c6c(c(C)c(OC(C)=O)c54)OCO6)N3[C@@H](C#N)[C@H](C2)N1C` (stereo partly drawn) [Compound 3u], the IC50 came out at 5 ng/mL (≈ 5.42 nM) in assay [5]; 1 ng/mL (≈ 1.08 nM) in assay [6]; 5 ng/mL (≈ 5.42 nM) in [7]; 1 ng/mL (≈ 1.08 nM) in assay [8]; 1 ng/mL (≈ 1.08 nM) in assay [9].
